# Test results reported in US12053533B2, “Fluorescent probe for cyclooxygenase-2” (The Board of Trustees of the University of Illinois, priority 2020, dated 2024).
# Experiments:
# [1] = system: COX-2 activity in HEK 293T cells over-expressing human COX-2; test: Confocal live-cell imaging of human COX-2 transfected HEK 293T cells; assay type: cell-based; conditions: CoxFluor 10 μM
# Protocol: Prior to plating onto 4-well chambered cover glasses, the surface exposed substrate was coated with R&D Systems™ Cultrex Poly-L-Lysine (Fisher Scientific) according to the manufacturers protocol (allowed to dry>3 h). […] Transfections was performed using Lipofectamine 3000 (Thermo Fisher Scientific) according to the manufacturer's protocol. […] Media was removed from each well and replaced with 500 μL Opti-MEM™ Reduced Serum Media followed by the addition of 20 μL transfection master mix.
# Transfections were performed using the Lipofectamine 3000 reagent according to the aforementioned protocol. Control wells were treated the same as the transfected wells without the addition of the transfection master mix. […] Each well was imaged using a Zeiss LSM 700 confocal microscope (n=3 technical replicates; n=4 biological replicates). For GSH knockdown experiments, the initial media change was performed with 1 mM NEM (0.1% DMSO final concentration) in serum-free DMEM media and the cells were allowed to incubate for 30 minutes before proceeding to the staining with CoxFluor. […] All images were processed using identical parameters and false colored (LUT: jet.lut) in ImageJ.
# [2] = system: COX-2 activity in RAW 264.7 macrophage lysates; test: RAW 264.7 macrophage lysate COX-2 activity assay; assay type: cell-based, mouse; conditions: NEM 1 mM, CoxFluor readout
# [3] = system: endogenous COX-2 activity in RAW 264.7 macrophage cells; test: Confocal live-cell imaging of LPS-activated RAW 264.7 macrophages; assay type: cell-based, mouse; conditions: CoxFluor 10 μM, 4 h, LPS 1 μg/mL, BSO 200 μM
# Protocol: Confocal Fluorescence Live-Cell Imaging of Lipopolysaccharide-activated RAW 264.7 Macrophages. The surface exposed substrate of 4-well chambered cover glasses was coated with R&D Systems™ Cultrex Poly-L-Lysine (Fisher Scientific) using the manufacturer's protocol. Plates were seeded with 180,000 cells per well (500 μL of 360,000 cells/mL in DMEM media supplemented with 10% FBS) and were allowed to incubate for 38 h at 37° C. with 5% CO2 (70-80% confluent). […] The cells were incubated under these conditions for 17 h at 37° C. with 5% CO2. […] Finally, the cells were stained under identical conditions supplemented with 10 μM CoxFluor (500 μL final volume containing 1.5% DMSO final concentration). After incubation at 37° C. with 5% CO2 for 4 h, each well was imaged using a Zeiss LSM 700 confocal microscope (n=3 technical replicates; n=4 biological replicates). Images were quantified over the entire imaging window, without any processing, using ImageJ (v. 1.51, NIH). All images were processed using identical parameters and false colored (LUT: jet.lut) in ImageJ.
# [4] = system: COX-2 activity in RAW 264.7 macrophage cells; test: Flow cytometry of LPS-induced COX-2 activity in RAW 264.7 macrophages; assay type: cell-based, mouse; conditions: CoxFluor 10 μM
# Source text: Flow Cytometry of Lipopolysaccharide-induced COX-2 Expression in RAW 264.7 Macrophages. […] After staining, cells were pelleted using the aforementioned procedure and were resuspended in PBS. […] Replicate numbers correspond to biological replicates.
# [5] = system: RAW 264.7 macrophage cells; test: Cell viability (trypan blue exclusion and MTT) in RAW 264.7 macrophage cells; assay type: cell-based, mouse; conditions: 6 h incubation
# Protocol: Trypan Blue Exclusion Cytotoxicity Assay. 6-well plates were seeded with 300,000 cells per well (2 mL of 150,000 cells/mL) and incubated at 37° C. with 5% CO2 for 48 to 72 h (˜60-80% confluent). Media was removed and replaced with either 5, 10, or 25 μM CoxFluor in fresh serum-free DMEM media (1.25% DMSO v/v final concentration). […] The trypsin was quenched with the addition of 1.8 mL DMEM media containing 10% FBS and the cells were mixed thoroughly before diluting 1:1 with trypan blue (0.4% in PBS w/v). Percent viability was measured using a Countess® II FL Automated Cell Counter (Thermo Fisher Scientific), where the parameters were optimized to identify live and dead cells. Viability was calculated by the relative to the vehicle control.
# MTT Cytotoxicity Assay. […] The media was removed at various time points (3 or 6 h) and replaced with 200 μL 20:1 mixture of FBS-free DMEM and (3-(4,5-dimethylthiazol-2-yl)-2,5-diphenyl-tetrazolium bromide (MTT, 5 mg/mL stock in PBS). The cells were incubated for 4 h under the same conditions and then the medium was removed and replaced with DMSO (200 μL/well). The absorbance of each well was recorded after a 1:5 dilution in DMSO at 555 nm on a microplate reader. Viability was calculated by the absorbance relative to the vehicle control.
smiles,measurement,setting,value
CCCCC/C=C\C/C=C\C/C=C\C/C=C\CCCC(=O)N1c2ccc(O)cc2Oc2cc(O)ccc21 [CoxFluor],fluorescence increase for transfected cells compared to the control,"[1]; 3 h, N-ethylmaleimide glutathione depletion",1.2 fold
same,fluorescence enhancement for the control relative to indomethacin-treated transfected cells,[1]; 4.5 h,1.2 fold
same,maximum increase in COX-2 activity in lysates,[2]; 19 hr LPS activation,17.6 fold
same,increase in COX-2 activity in lysates,[2]; within the first 4 hr of LPS activation,2.4 fold
same,fluorescent enhancement for LPS-stimulated cells relative to the control,[3],1.2 fold
same,"increase in median fluorescence, cells activated 19 hr compared to 4 hr",[4]; after BSO pre-treatment,1.6 fold
same,increase in activity after 19 hr LPS-activation relative to 4 hr,[4]; without GSH depletion,1.2 fold
same,cell viability,[5],suitable viability
